Measurements reported in patent US11248234B2, “Herbicide-resistant hydroxyphenylpyruvate dioxygenases” (BASF SE, priority 2015, dated 2022).
Entries after “also recorded” stand apart in the source; their conditions may differ.

How the values were obtained:
[1] = system: T2 Arabidopsis plants expressing mutated variants of Scenedesmus HPPD (all traits and events); assay: Greenhouse spray test, injury evaluation; assay type: in vivo, Arabidopsis thaliana; conditions: for leaf damage: two lowest application rates (1.56 g/ha and 6.25 g/ha)
Method: (§1) Non-transgenic control plants were treated in parallel and pictures taken 14 days after treatment.
(§2) For post emergence treatment, the test plants are first grown to a height of 3 to 15 cm, depending on the plant habit, and only then treated with the herbicides. For this purpose, the test plants are either sown directly and grown in the same containers, or they are first grown separately and transplanted into the test containers a few days prior to treatment.
(§3) Additionally, T1 and T2 transgenic Arabidopsis plants can be tested for improved tolerance to HPPD-inhibiting herbicides in greenhouse studies. Herbicide injury scoring is done 2-3 weeks after treatment and is rated on a scale of 0 to 100%, 0% being no injury and 100% being complete death.
(§4) Transgenic T2 Arabidopsis plants were sprayed with a range of doses from 1.56-25 g/ha of different HPPD-inhibiting herbicides and injury evaluations were taken two weeks after treatment (FIG. 4). As depicted in Table 8, control plants were severely injured by all doses of herbicides applied, with at least 58% of leaf material being damaged at the lowest application rate and 100% leaf damage at the second application rate.

[2] = system: WT (non-transgenic control) Arabidopsis plants; assay: Greenhouse spray test, injury evaluation; assay type: in vivo, Arabidopsis thaliana; conditions: 14 DAT
Method: as §1, §2, §3, §4

[3] = system: transgenic Arabidopsis plants (T2) SoHPPD I419V (short); assay: Greenhouse spray test, injury evaluation; assay type: in vivo, Arabidopsis thaliana; conditions: for Injury: 14 DAT
Method: as §1, §2, §3, §4

[4] = system: SoHPPD A318R, L350M (short); assay: In vitro HPPD activity assay; assay type: biochemical, Scenedesmus obliquus; conditions: normalized on Arabidopsis wild-type HPPD (SEQ ID NO:42)
Method: (§5) HPPD produces homogentisic acid and CO2 from 4-hydroxyphenylpyruvate (4-HPP) and O2. The activity assay for HPPD is based on the analysis of homogentisic acid by reversed phase HPLC.
(§6) The assay mixture can contain 150 mM potassium phosphate buffer pH 7.0, 50 mM L-ascorbic acid, 100 μM Catalase (Sigma-Aldrich), 1 μM FeSO4 and 0.2 units of purified mutated HPPD enzyme in a total volume of 505 μl. 1 unit is defined as the amount of enzyme that is required to produce 1 nmol of HGA per minute at 20° C.
(§7) After a preincubation of 30 min the reaction is started by adding 4-HPP to a final concentration of 0.05 mM. The reaction is allowed to proceed for 45 min at room temperature. The reaction is stopped by the addition of 50 μl of 4.5 M phosphoric acid. The sample is filtered using a […] pore size PVDF filtration device.
(§8) 5 μl of the cleared sample is analyzed on an UPLC HSS T3 column (particle size 1.8 μm, dimensions 2.1×50 mm; Waters) by isocratic elution using 90% 20 mM NaH2PO4 pH 2.2, 10% methanol (v/v).
(§9) HGA is detected electrochemically at 750 mV (mode: DC; polarity: positive) and quantified by integrating peak areas (Empower software; Waters).
(§10) Inhibitors are dissolved in DMSO (dimethylsulfoxide) to a concentration of 0.5 mM. From this stock solution serial five-fold dilutions are prepared in DMSO, which are used in the assay. The respective inhibitor solution accounts for 1% of the assay volume. Thus, final inhibitor concentrations range from 5 μM to 320 pM, respectively. Activities are normalized by setting the uninhibited enzyme activity to 100%. IC50 values are calculated using non-linear regression.
(§11) Using methods which are described in the above examples or well known in the art, purified, recombinant mutated HPPD enzymes are characterized with respect to their kinetic properties and sensitivity towards HPPD inhibiting herbicides. Apparent michaelis constants (Km) and maximal reaction velocities (Vmax) are calculated by non-linear regression with the software GraphPad Prism 5 (GraphPad Software, La Jolla, USA) using a substrate inhibition model. Apparent kcat values are calculated from Vmax assuming 100% purity of the enzyme preparation. Weighted means (by standard error) of Km and IC50 values are calculated from at least three independent experiments. The Cheng-Prusoff equation for competitive inhibition (Cheng, Y. C.; Prusoff, W. H. Biochem Pharmacol 1973, 22, 3099-3108) is used to calculate dissociation constants (Ki).
(§12) Field performance of the HPPD enzyme, which is used as a herbicide tolerance trait may depend not only on its lack of sensitivity towards HPPD inhibiting herbicides but also on its activity. To assess the potential performance of a herbicide tolerance trait a tolerance index (TI) is calculated using the following formula: […]
(§13) Easy comparison and ranking of each trait is enabled by normalizing tolerance indexes on Arabidopsis wild-type HPPD.

SoHPPD A318R, L350M = assay: In vitro HPPD activity assay; assay type: biochemical, Scenedesmus obliquus; conditions: normalized on Arabidopsis wild-type HPPD (SEQ ID NO:42)
Method: as §5, §6, §7, §8, §9, §10, §11, §12, §13

SoHPPD E345Q (short) = assay: In vitro HPPD activity assay; assay type: biochemical, Scenedesmus obliquus; conditions: normalized on Arabidopsis wild-type HPPD (SEQ ID NO:42)
Method: as §5, §6, §7, §8, §9, §10, §11, §12, §13

[5] = system: SoHPPD E345Q, K326Q (short); assay: In vitro HPPD activity assay; assay type: biochemical, Scenedesmus obliquus; conditions: normalized on Arabidopsis wild-type HPPD (SEQ ID NO:42)
Method: as §5, §6, §7, §8, §9, §10, §11, §12, §13

SoHPPD E379Q (short) = assay: In vitro HPPD activity assay; assay type: biochemical, Scenedesmus obliquus; conditions: normalized on Arabidopsis wild-type HPPD (SEQ ID NO:42)
Method: as §5, §6, §7, §8, §9, §10, §11, §12, §13

SoHPPD F363I (short) = assay: In vitro HPPD activity assay; assay type: biochemical, Scenedesmus obliquus; conditions: normalized on Arabidopsis wild-type HPPD (SEQ ID NO:42)
Method: as §5, §6, §7, §8, §9, §10, §11, §12, §13

SoHPPD F363I = assay: In vitro HPPD activity assay; assay type: biochemical, Scenedesmus obliquus; conditions: normalized on Arabidopsis wild-type HPPD (SEQ ID NO:42)
Method: as §5, §6, §7, §8, §9, §10, §11, §12, §13

SoHPPD I419V (short) = assay: In vitro HPPD activity assay; assay type: biochemical, Scenedesmus obliquus; conditions: normalized on Arabidopsis wild-type HPPD (SEQ ID NO:42)
Method: as §5, §6, §7, §8, §9, §10, §11, §12, §13

SoHPPD I455V = assay: In vitro HPPD activity assay; assay type: biochemical, Scenedesmus obliquus; conditions: normalized on Arabidopsis wild-type HPPD (SEQ ID NO:42)
Method: as §5, §6, §7, §8, §9, §10, §11, §12, §13

[6] = system: SoHPPD L367V, I375L (short); assay: In vitro HPPD activity assay; assay type: biochemical, Scenedesmus obliquus; conditions: normalized on Arabidopsis wild-type HPPD (SEQ ID NO:42)
Method: as §5, §6, §7, §8, §9, §10, §11, §12, §13

SoHPPD L367V, I375L = assay: In vitro HPPD activity assay; assay type: biochemical, Scenedesmus obliquus; conditions: normalized on Arabidopsis wild-type HPPD (SEQ ID NO:42)
Method: as §5, §6, §7, §8, §9, §10, §11, §12, §13

[7] = system: SoHPPD Q317H, A318G, E345Q (short); assay: In vitro HPPD activity assay; assay type: biochemical, Scenedesmus obliquus; conditions: normalized on Arabidopsis wild-type HPPD (SEQ ID NO:42)
Method: as §5, §6, §7, §8, §9, §10, §11, §12, §13

SoHPPD Q317H = assay: In vitro HPPD activity assay; assay type: biochemical, Scenedesmus obliquus; conditions: normalized on Arabidopsis wild-type HPPD (SEQ ID NO:42)
Method: as §5, §6, §7, §8, §9, §10, §11, §12, §13

SoHPPD Q317M (short) = assay: In vitro HPPD activity assay; assay type: biochemical, Scenedesmus obliquus; conditions: normalized on Arabidopsis wild-type HPPD (SEQ ID NO:42)
Method: as §5, §6, §7, §8, §9, §10, §11, §12, §13

SMILES | leaf damage [1] | Injury ([2]; 1.56 g ai/ha) [%] | Injury ([2]; 6.25 g ai/ha) [%] | Injury ([2]; 25 g ai/ha) [%] | Injury ([3]; Event G, 1.56 g ai/ha) [%] | Injury ([3]; Event G, 6.25 g ai/ha) [%] | TI (normalized tolerance index) [4] | TI (normalized tolerance index) (SoHPPD A318R, L350M) | TI (normalized tolerance index) (SoHPPD E345Q (short)) | TI (normalized tolerance index) [5] | TI (normalized tolerance index) (SoHPPD E379Q (short)) | TI (normalized tolerance index) (SoHPPD F363I (short)) | TI (normalized tolerance index) (SoHPPD F363I) | TI (normalized tolerance index) (SoHPPD I419V (short)) | TI (normalized tolerance index) (SoHPPD I455V) | TI (normalized tolerance index) [6] | TI (normalized tolerance index) (SoHPPD L367V, I375L) | TI (normalized tolerance index) [7] | TI (normalized tolerance index) (SoHPPD Q317H) | TI (normalized tolerance index) (SoHPPD Q317M (short)) | also measured
Cc1c(C(=O)c2cnn(C)c2O)ccc(S(C)(=O)=O)c1C1=NOCC1 [Inhibitor 1, [3-(4,5-dihydroisoxazol-3-yl)-2-methyl-4-methylsulfonyl-phenyl]-(5-hydroxy-1-methyl-pyrazol-4-yl)methanone] | 0-8% | 75 | 100 | 100 | 5 | 8 | – | – | – | – | – | – | – | – | – | – | – | – | – | – | leaf material being damaged ([1]; 25 g/ha): less than 20%; Injury ([3]; Event G, 25 g ai/ha): 13%; Injury ([3]; Event H, 1.56 g ai/ha): 0%; Injury ([3]; Event H, 6.25 g ai/ha): 0%; Injury ([3]; Event H, 25 g ai/ha): 13%
CS(=O)(=O)c1ccc(C(=O)C2C(=O)CCCC2=O)c([N+](=O)[O-])c1 [Inhibitor 2, 2-(4-methylsulfonyl-2-nitro-benzoyl)cyclohexane-1,3-dione] | did not show leaf injury | 58 | 100 | 100 | 0 | 0 | 0.8 | 0.1 | 0.5 | 0.1 | 0.0 | 0.8 | 0.1 | 0.1 | 0.1 | 0.0 | 0.0 | 0.4 | 0.1 | 0.6 | average injury rate ([3]; 25 g ai/ha, average of events): 75%; Injury ([3]; Event G, 25 g ai/ha): 95%; Injury ([3]; Event H, 1.56 g ai/ha): 5%; Injury ([3]; Event H, 6.25 g ai/ha): 8%; Injury ([3]; Event H, 25 g ai/ha): 58%
CCS(=O)(=O)c1cc(C(F)(F)F)ccc1C1=C(O)c2ncccc2C(C)(C)S1(=O)=O [Inhibitor 4, 7-[2-ethylsulfonyl-4-(trifluoromethyl)phenyl]-5,5-dimethyl-6,6-dioxo-thiopyrano[4,3-b]pyridin-8-ol] | – | – | – | – | – | – | 1.0 | 0.3 | 0.3 | 0.0 | 0.1 | 0.3 | 0.1 | 0.3 | 0.5 | 0.3 | 0.2 | 1.4 | 0.3 | 1.3 | –
CC(=O)N(C)c1c(Cl)ccc(C2=C(O)c3ncccc3C(C)(C)S2(=O)=O)c1Cl [Inhibitor 5, N-[2,6-dichloro-3-(8-hydroxy-5,5-dimethyl-6,6-dioxo-thiopyrano[4,3-b]pyridin-7-yl)phenyl]-N-methyl-acetamide] | – | – | – | – | – | – | 0.7 | 0.2 | 0.2 | 0.2 | 0.0 | 0.6 | 0.4 | 0.1 | 0.7 | 0.3 | 0.1 | 0.9 | 0.2 | 0.9 | –
CCSc1ccc(Cl)c(C(=O)Nc2nnnn2C)c1Cl [Inhibitor 8, 2,6-dichloro-3-ethylsulfanyl-N-(1-methyltetrazol-5-yl)benzamide] | – | – | – | – | – | – | 1.2 | 0.2 | 0.5 | 0.3 | 0.4 | not inhibited; also recorded: no inhi- | no inhibition; also recorded: no inhi- | 0.3 | 0.3 | 0.7 | 0.0 | 1.0 | 0.1 | 0.8 | –
